Assay results reported in patent US11166464B2, “Self-assembled active agents” (priority 2017, dated 2021).
Marks after values point to notes of the source that are not given here.

Key:
[1] = system: Aspergillus brasillensis, ATCC16404; experiment: Preservative test in home cleaning formulations; type: cell-based, Aspergillus brasiliensis; conditions: aminoguanidine adducts of the named hydrophilic aldehydes
[2] = system: A. brasiliensis ATCC16404; experiment: MIC of aminoguanidine-aldehyde adducts, actives dissolved in all-purpose cleaner and diluted in MH broth; type: cell-based, Aspergillus brasiliensis; conditions: aminoguanidine adduct of the listed aldehyde; 4 × 10^5 spores/mL starting spore counts; Table 4
Description: General procedure for preparation of actives: Complexes were formed by treating 20 mg of aldehyde or ketone with 180 mg of aminoguanidine HCl stock solution (37 wt % aminoguanidine HCl in dH2O) and heating at 60° C. for 48 h. The resulting product mixtures were subsequently screened for antimicrobial activity.

[3] = system: Aspergillus brasiliensis (ATCC 16404); experiment: Viability of microbes in formula over time (log reduction in cell count); type: cell-based; conditions: seven days, initial 5 × 10^6 cells/mL; for Log Reduction in APC formula: aminoguanidine complex of the listed aldehyde at 0.1 wt % in all-purpose cleaner; for Log Reduction in MDC formula: aminoguanidine complex of the listed aldehyde at 0.1 wt % in manual dish formula
Description: […] The total volume of the mixture was 5 mL. The inoculated mixture was kept in a shaker at 30° C. for 7 days. Microorganism viability was determined by plating […] of inoculated mixture on MH agar plates on days 0, 3, and 7.
A. Brasiliensis cell counts were monitored and counted over seven days.

[4] = system: Pseudomonas aeruginosa; experiment: MIC and synergy (1/FICI) in cation-adjusted Mueller-Hinton broth, abs600 after 24 h; type: cell-based; conditions: for MIC (wt %): component alone, 24 h, 37° C.
Description: (§1) To compare antimicrobial efficacy of self-assembled complexes to their components, fractional inhibitory concentration indices (FICIs) were calculated from measured minimum inhibitory concentrations (MICs) against Pseudomonas aeruginosa and Escherichia coli. The MIC of each substance was determined according to standard guidelines in cation-adjusted Mueller-Hinton broth at a total volume of ˜100 μl with test concentrations decreasing two-fold to span the empirically-determined MIC (J. Med. Chem., 59: 2126-2138 (2016)). Wells contained starting microbe concentrations of approximately 10^7 cells/mL. Absorbance at 600 nm (abs600) was determined immediately after inoculation using a 96 well plate reader. Plates were incubated at 37° C. and abs600 measured after 24 hours. For the purposes of these experiments, minimum inhibitory concentrations are defined as the minimum concentration observed to inhibit microbial growth over this time span, with a change in abs600 less than or equal to 0.1.
Following MIC testing, FICI were calculated as shown in Equation 1: […]
The FICI can be used to quantify the synergy between two components (X and Y). Specifically, 1/FICI can be used as a measure of synergy, interpreted as factors by which the potency of a given combination is greater than the sum of its parts (see Journal of Antimicrobial Chemotherapy, 52:1 (2003)). For example, in the present invention, synergy may be found when the effective amount of the self-assembled active agent is lower than the sum of the effective amounts of the two or more component molecules.
(§2) For the data in Table 2, when multiple components were used to form a complex, the amine component was present in excess of a 1:1 molar ratio.
The MICs determined as per above were then used to calculate FICIs. Note that 1/FICI values varied with subcomponent ratio; unless otherwise noted, the values shown in Table 3 represent a molar ratio of 6:1, amine:aldehyde.

[5] = system: Escherichia coli; experiment: MIC in cation-adjusted Mueller-Hinton broth, abs600 after 24 h; type: cell-based; conditions: amine + aldehyde combined, amine in excess of 1:1 molar ratio, E. coli
Description: as §1, §2

[6] = system: A. brasiliensis ATCC16404; experiment: MIC of aminoguanidine-aldehyde adducts, actives dissolved in all-purpose cleaner and diluted in MH broth; type: cell-based, Aspergillus brasiliensis; conditions: subcomponent alone (parent aldehyde, aminoguanidine or biocide standard), not the complex; Table 5

2,4,6-trimethoxybenzaldehyde
Preservation of the high surfactant manual dish formula [1]: enabled effective preservation | MIC (wt %) [2]: 0.0595 wt %

2,6-dimethoxybenzaldehyde
Preservation of the high surfactant manual dish formula [1]: enabled effective preservation | MIC (wt %) [2]: 0.0149 wt %

2-hydroxyl-4-methoxybenzaldehyde
Log Reduction in APC formula [3]: 1 | Log Reduction in MDC formula [3]: 1 | MIC (wt %) [2]: 0.0149 wt %

4-hydroxybenzaldehyde
Preservation of the high surfactant manual dish formula [1]: enabled effective preservation | MIC (wt %) [2]: 0.0298 wt %

COc1ccc(C=O)c(OC)c1 [2,4-dimethoxybenzaldehyde]
Log Reduction in APC formula [3]: 6 | Log Reduction in MDC formula [3]: 1

O=Cc1ccc(C=O)o1 [2,5-furandicarboxaldehyde]
Log Reduction in APC formula [3]: 1 | Log Reduction in MDC formula [3]: 1

O=Cc1ccc(C=O)s1 [2,5-thiophenedicarboxaldehyde]
Log Reduction in APC formula [3]: 2 | Log Reduction in MDC formula [3]: 1

O=Cc1cccc(C=O)c1Br [2-bromoisophthalaldehyde]
Log Reduction in APC formula [3]: 2 | Log Reduction in MDC formula [3]: 1

Cl.N=C(NN)NN [A, 1,3-diaminoguanidine]
MIC (wt %) ([4]; P. aeruginosa): 0.3^i wt %

NC(N)=NN=Cc1ccc(C=NN=C(N)N)cc1 [B + 5]
MIC (wt %) of complex, given as aldehyde component ([4]; amine + aldehyde combined, amine in excess of 1:1 molar ratio, concentration of aldehyde component, P. aeruginosa): 0.01^i wt % | MIC (wt %) of complex, given as amine component ([4]; amine + aldehyde combined, amine in excess of 1:1 molar ratio, concentration of amine component, P. aeruginosa): 0.06^i wt %

Cc1cc(C=NN=C(N)N)c(O)c(C=NN=C(N)N)c1 [B + 10]
MIC (wt %) of complex, given as aldehyde component ([5]; concentration of aldehyde component): 0.002^ii wt % | MIC (wt %) of complex, given as amine component ([5]; concentration of amine component): 0.02^ii wt %

O=Cc1ccc(C=O)cc1 [Entry 5, terephthalaldehyde]
MIC (wt %) ([4]; P. aeruginosa): 0.3^i wt %

O=Cc1cc(C=O)cc(C=O)c1 [Entry 7, benzene-1,3,5-tricarboxaldehyde]
MIC (wt %) ([4]; P. aeruginosa): 0.3^i wt % | Synergism (1/FICI) with B, extrapolated ([4]; extrapolated from eight FICI measurements where the weight ratio of B:7 varied from 1:1 to 9:1): 1000*

aminoguanidine [B]
MIC (wt %) ([4]; P. aeruginosa): >2^i wt % | MIC (wt %) subcomponent [6]: >0.4762 wt %

glyoxal [Entry 1]
MIC (wt %) ([4]; P. aeruginosa): 0.04^i wt %

m-anisaldehyde
Preservation of the high surfactant manual dish formula [1]: enabled effective preservation | MIC (wt %) [2]: 0.0595 wt %

vanillin isobutyrate
MIC (wt %) [2]: 0.1190 wt %
